Test system: rat salivary gland (submandibular gland)
Assay: Intraductal transfection of rat salivary gland with pCMV.FOX.Luc-2, luciferase assay
Format: in vivo
Procedure: Nucleic acid/transition metal enhancer mixtures were prepared by sequentially adding deionized water or a buffered solution, DNA, and a desired transition metal enhancer to a polystyrene tube with mixing. “Free” (i.e., “Naked”) DNA controls were prepared by sequentially adding DNA to water or a buffered solution
Male Sprague-Dawley rats (260-280 g) were fasted the night prior to treatment. After administration of the anesthesia (see Section 6.1.3), both right and left salivary gland ducts (specifically, Wharton's duct) were cannulated with fine polyurethane tubing (i.d. 0.005″) and cemented into the desired location. Atropine was then administered subcutaneously (0.5 mg/kg) and, after eight minutes, 50 μl of the nucleic acid/transition metal enhancer mixture was injected, infused, instilled or administered at the ductal orifice or directly into the duct at any point along its length. See Goldfine, Nature Biotechnology 15:1378, 1997.
Regardless of whether a liposome/transition metal/nucleic acid mixture or a nucleic acid/transition metal enhancer mixture was delivered, the tubing and mixture was kept in place for ten additional minutes after application of the mixture prior to removal. At 48 hours post atropine administration, the rats were anesthetized by intraperitoneal injection of pentobarbital (50 mg/kg). The right and left submandibular glands were surgically removed, and the tissues were assayed for any observable reporter gene (luciferase of hGH) expression using the methods described below.
The presently claimed invention describes a new method using a combination of a transition metal enhancer and a nucleic acid of interest for gene delivery. The present invention provides a method which may enhance gene expression by improving the efficiency of gene delivery. This change in gene expression can be quantitated using various assays, such as the luciferase assay. de Wet et al., Molec. Cell Biol. 7:725, 1987. In various experiments described herein, the right and left submandibular glands were removed from the male Sprague-Dawley rats at 48 hours post administration of the pCMV.FOX.Luc-2 containing solution. In additional experiments other organs, such as the rat lungs, were used.
In experiments in which submandibular glands were tested, the amount of luciferase present in the right and left submandibular gland of each male Sprague-Dawley rat was measured independently and treated as separate, individual experiments (e.g., trials) because the amount of luciferase expressed by one submandibular gland is independent of the amount of luciferase expressed in the other submandibular gland. Therefore, each submandibular gland was independently lysed in lysis buffer (1.0 ml buffer per 0.1 g tissue) to create a lysis homogenate. The lysis buffer contained 100 mM K2PO4 pH 7.0, 1 mM dithiothreitol, and 1% Triton X-100. A 100 μl aliquot of lysis homogenate from each submandibular gland was analyzed for luciferase activity (de Wet et al., Molec. Cell Biol. 7:725, 1987) using a Monolight 2010 luminometer (Analytical Luminescence Laboratories). Accordingly, luciferase light emissions from each aliquot of the lysis homogenate were measured over a ten second period.
Activity was expressed as relative light units, values collectively representing the assay conditions, luciferase concentration, luminometer photomultiplier tube sensitivity and background. Using well known techniques, the luciferase light units may be converted, for example, to picograms of luciferase protein. See, e.g., Felgner et al., U.S. Pat. No. 5,580,899 at Example 13. All experiments were performed in duplicate. In experiments using submandibular glands, data from each individual submandibular gland lysis homogenate is reported as a single trial.

CC(=O)[O-].CC(=O)[O-].[Zn+2] [Zn(CH3CO2)2, zinc acetate]
Average relative light units (rat, in vivo): 309965 relative light units

[Cl][Cu] [Cu, cuprous chloride]
Average relative light units (Table 3, metal chloride 0.6 mM, 32 μg DNA in 50 μl, Tris-HCl/EDTA, 48 hours, eight glands): 17667 relative light units | Average relative light units (Table 3, metal chloride 0.9 mM, 32 μg DNA in 50 μl, Tris-HCl/EDTA, 48 hours, eight glands): 42204 relative light units | Average relative light units (Table 3, metal chloride 1.2 mM, 32 μg DNA in 50 μl, Tris-HCl/EDTA, 48 hours, eight glands): 17194 relative light units

[Cl][Ni][Cl] [Ni, nickel chloride]
Average relative light units (Table 2, metal chloride 0.3 mM, 32 μg DNA in 50 μl, 48 hours, eight glands): 18391 relative light units | Average relative light units (Table 2, metal chloride 0.9 mM, 32 μg DNA in 50 μl, 48 hours, eight glands): 65121 relative light units

[Cl][Co][Cl] [CoCl2, cobalt chloride]
Average relative light units (Table 4, CoCl2 0.3 mM, 32 μg DNA in 50 μl, 48 hours): 37219 relative light units | Average relative light units (Table 4, CoCl2 0.9 mM, 32 μg DNA in 50 μl, 48 hours): 44926 relative light units

O=S(=O)([O-])[O-].[Zn+2] [ZnSO4, zinc sulfate]
Average relative light units (Table 6, zinc 3.6 mM, 128 μg DNA in 50 μl, 48 hours): 355676 relative light units

Reference: US6624149B2, “Method for nucleic acid transfection of cells” (Genteric, Inc., priority 2000, dated 2003)
